Here are results for 13 compounds from PubChem BioAssay (NCI).

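All cell lines were grown in 96-well plates and treated with compound for 48 hours. The concentration for full growth arrest is given as TGI.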

What all share (assay): NCI anticancer screen, dose series, 48 h
Assay [1] relates to HCT-15 colon.
The subject of assay [2] is T-47D breast.
Assay [3] concerns NCI-H226 lung.
For assay [4], the system named is SF-268 CNS.
The subject of assay [5] is NCI-H522 lung.
For assay [6], the system named is SN12C renal.
For assay [7], the system named is HT29 colon.
Assay [8] relates to U251 CNS.
Assay [9] deals with SK-MEL-28 melanoma.
Assay [10] has as its system HOP-92 NSCLC.
Assay [11] relates to RXF 393 renal.

`COC(=O)c1c(O)ccc2c1c1c(n2Cc2ccc(OC)cc2)C(=O)c2ccccc2C1=O`: the TGI was determined as 16.7 µM in [1]; 46.1 µM in assay [2]; 25.8 µM in assay [3]; 55 µM in [4]; 17.1 µM in assay [5]; 7.35 µM in assay [6]. Besides, the TGI was found to be 8.55 µM in assay [7]; 23.4 µM in assay [8]; 37.4 µM in assay [9]; 25.3 µM in assay [10]; 34.3 µM in assay [11].

As to `CC(C)=CCC/C(=C\CC/C(=C\CCc1ccoc1)C(=O)O)C(=O)O`, the TGI in [1], in [2], in [3], in assay [4], in assay [5] and in [6] was more than 100 µM in each case. The TGI in assay [7], in [8], in [9], in assay [10] and in [11] was more than 100 µM each time.

Regarding `CC1(CCc2ccccc2)CC1(Br)Br` (stereo unspecified), the TGI in assay [1] is more than 100 µM; in assay [2] it was more than 100 µM; in [3], 77.1 µM; in [4], more than 100 µM; in assay [5] it was 61.5 µM; in [6] it was 38.1 µM. The TGI in assay [7] is more than 100 µM; in assay [8] it was more than 100 µM; in assay [9], more than 100 µM; in assay [10], 60.2 µM; in [11], 41.2 µM.

`CN(C)Cc1cc(C(C)(C)C)cc(CNC2CCCCC2)c1O`: the TGI in assay [1] is more than 100 µM; in assay [2], more than 100 µM; in assay [4] it was 47.4 µM; in assay [5], 60.4 µM; in [6], more than 100 µM; in [7], 54.6 µM. For the same compound, the TGI in assay [8] was more than 100 µM; in [9] it was more than 100 µM; in assay [10] it was 59.7 µM; in [11] it was more than 100 µM.

For `COc1ccc(-c2cc(C3CC3)nc(SCC(=O)O)c2C#N)cc1`, the TGI in assay [1] was more than 100 µM; in assay [2], more than 100 µM; in assay [3], more than 100 µM; in assay [4] it was more than 100 µM; in assay [5], 71.6 µM; in assay [6], more than 100 µM. The TGI in [7], in assay [8], in [9], in [10] and in assay [11] was more than 100 µM in each case.

Regarding `C/C=C1/CN2[C@@H](C3=C[C@@H]4[C@@H]5N(C3=O)c3ccccc3[C@@]53CCN5C/C(=C/C)[C@@H]4C[C@H]53)C[C@@]34c5ccccc5N5C(=O)CC=C([C@H]1C[C@H]23)[C@H]54`, the TGI in assay [1] stood at 10.3 µM; in assay [2], 49.2 µM; in assay [3], 16.5 µM; in [4] it was 14.1 µM; in [5], 14.6 µM; in [6], 9.95 µM. In addition, the TGI in [7] is 8.08 µM; in [8], 7.67 µM; in [9] it was 3.91 µM; in assay [10], 13.2 µM; in [11] it was 10.6 µM.

`Fc1ccc(C2NC(=S)NC3=C2CCOc2c3ccc3ccccc23)cc1` (stereo unspecified): the TGI in assay [1] was more than 100 µM; in assay [2], 9.44 µM; in assay [4], more than 100 µM; in assay [5], more than 100 µM; in assay [6], more than 100 µM; in assay [10] it was more than 100 µM. For the same compound, in assay [11], the TGI was more than 100 µM.

Regarding `Cc1ccc(C2(N3CCCC3)OC(C)(C)c3cccc4cccc2c34)cc1` (stereo unspecified), the TGI in assay [1] was determined as 32.2 µM; in [2], 46.9 µM; in assay [3], 31.8 µM; in [4], 25.8 µM; in assay [5], 25.6 µM; in assay [6], 32.6 µM. The TGI in [7] was 26.2 µM; in [8], 29.4 µM; in assay [10], 21.2 µM; in assay [11], 27.1 µM.

As for `N#CCN1CCCCCc2ccccc21`, the TGI in [1], in [2], in [3], in assay [4], in assay [6] and in [7] was more than 100 µM each time. For the same compound, the TGI in assay [8], in assay [9], in [10] and in assay [11] was more than 100 µM throughout.

In the case of `Cc1ccc(S(=O)(=O)NC(=O)NC(Cc2ccccc2)C(=O)O)cc1` (stereo unspecified), the TGI in assay [1], in assay [2], in assay [4], in assay [5], in [6] and in assay [7] was more than 100 µM in each case. Also, the TGI in assay [8], in assay [9], in [10] and in [11] was more than 100 µM throughout.

Turning to `CCOC(O)C(F)(F)F` (stereo unspecified), the TGI in [1], in assay [2], in assay [3], in [4], in assay [6] and in [7] was more than 100 µM each time. For the same compound, the TGI in assay [8], in assay [9], in assay [10] and in [11] was more than 100 µM each time.

Regarding `OCc1c2c(cc3c1CC1(C3)Cc3cc4c(c(CO)c3C1)CCC4)CCC2`, the TGI was determined as 34.6 µM in [1]; 31 µM in assay [2]; 28.5 µM in assay [3]; 28.5 µM in assay [5]; 32.4 µM in assay [6]; 32.4 µM in [7]. Besides, the TGI worked out at 29.4 µM in assay [8], 33.1 µM in [10] and 32.7 µM in assay [11].

Regarding `Cc1c(C)c2c(c(N)c1C#N)C(=O)N(OS(=O)(=O)c1ccccc1)C2=O`, the TGI in assay [1] was 46 µM; in assay [2], 20 µM; in [3], 43.3 µM; in assay [4] it was more than 100 µM; in assay [5], 34 µM; in assay [6] it was 51.4 µM. Also, the TGI in assay [8] was 49.5 µM; in [9], 67.3 µM; in assay [10], 35.2 µM; in assay [11] it was 30.7 µM.
